Data reported in EPA's ToxValDB 9.5.
Several values for one entry are separate records, joined by “and”; a condition that tells them apart may be missing. Equal entries are not always repeated.

How the values were obtained:
Rattus norvegicus [1] = conditions: for LD50 / LC50: acute
Oryctolagus sp. = conditions: dermal; for LD50: acute
Mus musculus [2] = conditions: for LD50: acute
Canidae = conditions: chronic, oral, diet, M/F, Dog Other
Rattus norvegicus [3] = test system: Rattus norvegicus
Rattus norvegicus [4] = conditions: M/F
Rattus norvegicus [5] = test system: Rattus norvegicus; remark: listed apart in the source
Mus musculus [6] = conditions: oral, gavage
Rattus norvegicus [7] = conditions: subchronic, duration: 13 weeks, oral, gavage, M/F, Fischer 344
[8] = duration: 1 years, liver cell enlargement
[9] = duration: 2 years, liver toxicity
[10] = reduced body weight gain, skeletal myopathy, slight anemia, bone marrow hyperplasia, increased serum sgot, sgpt, cpk
[11] = chronic, duration: 2 years, oral, diet, increased liver weight
[12] = duration: 2 years, cholinesterase inhibition
[13] = duration: 1 years, thyroid toxicity

[S-]c1nc2ccccc2s1.[S-]c1nc2ccccc2s1.[Zn+2] [Zinc 2-mercaptobenzothiazolate]
LD50 (Rattus norvegicus [1]; oral, Sprague-Dawley): 5500 mg/kg
LD50 (Rattus norvegicus [1]; oral, gavage, Sprague-Dawley): 7500 mg/kg
LD50 (Oryctolagus sp.; New Zealand): > 2000 mg/kg
LD50 (Oryctolagus sp.; occlusive, New Zealand): > 7940 mg/kg
NOAEL (Mus musculus [2]; reproduction developmental, duration: 18 months, oral): 1000 mg/kg-day

Clc1ccc(C(Cl)(Cl)Cl)cn1 [2-Chloro-5-trichloromethylpyridine]
LC50 (Rattus norvegicus [1]; Inhalation, Fischer 344): > 108 mg/m3
LD50 (Rattus norvegicus [1]; oral, gavage, Sprague-Dawley): ≥ 500 mg/kg and ≤ 1000 mg/kg
NOAEL (Rattus norvegicus [1]; short-term, duration: 2 weeks, Inhalation, Fischer 344): 9.44 mg/m3
NOAEL (Mus musculus [2]; short-term, duration: 2 weeks, inhalation, B6C3F1): 9.44 mg/m3

C[Si](Cn1cncn1)(c1ccc(F)cc1)c1ccc(F)cc1 [Flusilazole]
LEL (Canidae; [8]): 0.7 mg/kg-day
NOEL (Canidae; [8]): 0.2 mg/kg-day

COc1nn(CSP(=S)(OC)OC)c(=O)s1 [Methidathion]
LEL (Canidae; [9]): 0.4 mg/kg-day
NOEL (Canidae; [9]): 0.1 mg/kg-day

CCCCCCCCCCCCN [1-Dodecanamine]
LD50 (Rattus norvegicus [1]; oral, gavage): 1020 mg/kg
LD50 (Rattus norvegicus [1]; oral, gavage, Wistar): > 2000 mg/kg
LD50 (Mus musculus [2]; oral, gavage): 1160 mg/kg

CC(C)C1(C)N=C(c2nc3ccccc3cc2C(=O)O)NC1=O (stereo unspecified) [Imazaquin]
LEL (Canidae; [10]): 125 mg/kg-day
NOEL (Canidae; [10]): 25 mg/kg-day

CC1(C)C(C=C(Cl)Cl)C1C(=O)OCc1cccc(Oc2ccccc2)c1 (stereo unspecified) [Permethrin]
NOEL (Rattus norvegicus [3]; Hershberger, duration: 10 days, oral, gavage, Sprague-Dawley, inactive + Negative + Negative + neither + no effects on PPS, AST, testis/epididymal wt, serum testosterone, and liver wt increased 11% at …): 120 mg/kg-day
LEL (Rattus norvegicus [3]; uterotrophic, duration: 3 days, injection, subcutaneous, Active): 800 mg/kg-day
LEL (Rattus norvegicus [4]; [11]): 25 mg/kg-day
NOEL (Rattus norvegicus [4]; [11]): 5 mg/kg-day
NOAEL (Rattus norvegicus [5]; acute, duration: 1 days, oral, gavage, M/F, Long-Evans, neurological): 25 mg/kg-day
NOAEL (Rattus norvegicus [5]; subchronic, duration: 13 weeks, oral, diet, M/F, Sprague-Dawley, neurological): 15.5 mg/kg-day

O=C(O)C(F)(F)C(F)(F)OC(F)(F)F [Perfluoro-3-methoxypropanoic acid]
NOAEL (Mus musculus [6]; subchronic, duration: 30 days, F, C57BL/6, Cardiovascular: Heart: Heart Weight, Relative + Hepatic: Liver: Liver Weight, Relative + Immune: Multi-Organ: Immunoglobulin M (IgM), Serum…): 50 mg/kg-day
NOAEL (Mus musculus [6]; subchronic, duration: 30 days, M, C57BL/6, Cardiovascular: Heart: Heart Weight, Relative + Hepatic: Liver: Liver Weight, Relative + Immune: Multi-Organ: Immunoglobulin M (IgM), Serum…): 50 mg/kg-day

N#Cc1cccc(C#N)c1 [1,3-Benzenedicarbonitrile]
LC50 (Rattus norvegicus [1]; Inhalation, Sprague-Dawley): > 8970 mg/m3
LD50 (Rattus norvegicus [1]; oral, gavage): > 5010 mg/kg
NOAEL (Rattus norvegicus [1]; chronic, duration: 99 days, oral, diet, F, Charles River Crl:CD BR VAF/PLUS): 5 mg/kg-day
NOAEL (Rattus norvegicus [1]; chronic, duration: 99 days, oral, diet, M, Charles River Crl:CD BR VAF/PLUS): 1 mg/kg-day
NOAEL (Rattus norvegicus [1]; reproduction developmental, duration: 122 days, oral, diet, F): 25 mg/kg-day
NOAEL (Rattus norvegicus [1]; short-term, duration: 14 days, Inhalation, Sprague-Dawley): 190 mg/m3
LD50 (Oryctolagus sp.; occlusive): > 2000 mg/kg
NOAEL (Oryctolagus sp.; short-term, duration: 3 weeks, non-occlusive, New Zealand): 500 mg/kg-day
NOAEL (Mus musculus [2]; chronic, duration: 91 days, oral, diet, CD1): 20 mg/kg-day

C=CC(=O)NCO [N-Methylolacrylamide]
LD50 (Rattus norvegicus [1]; oral, gavage, Fischer 344): 400 mg/kg
NOAEL (Rattus norvegicus [1]; short-term, duration: 16 days, oral, gavage, Fischer 344): 50 mg/kg-day
NOAEL (Rattus norvegicus [1]; short-term, duration: 28 days, oral, diet): 4 mg/kg-day
NOAEL (Rattus norvegicus [1]; subchronic, duration: 90 days, oral, gavage, Fischer 344): 12.5 mg/kg-day
LD50 (Mus musculus [2]; oral, DD): 677 mg/kg
LD50 (Mus musculus [2]; oral, gavage, B6C3F1): 400 mg/kg
NOAEL (Mus musculus [2]; short-term, duration: 16 days, oral, gavage, B6C3F1): 100 mg/kg-day
NOAEL (Mus musculus [2]; subchronic, duration: 90 days, oral, gavage, B6C3F1): 12.5 mg/kg-day
NOEL (Rattus norvegicus [7]; Deaths + Clinical Observation: Hind limb paresis + Functional Observational Battery: Hind limb-grip strength decrease Auditory startle …): < 12.5 mg/kg-day

CCOP(=O)(NC(C)C)Oc1ccc(SC)c(C)c1 (stereo unspecified) [Fenamiphos]
LEL (Canidae; [12]): 0.05 mg/kg-day
NOEL (Canidae; [12]): 0.025 mg/kg-day

CC(=O)O.CCCCCCCCCCCCN=C(N)N [Dodecylguanidine acetate]
LEL (Canidae; [13]): 5 mg/kg-day
NOEL (Canidae; [13]): 1.25 mg/kg-day

O=C(O)CC(F)(F)C(F)(F)C(F)(F)C(F)(F)C(F)(F)C(F)(F)F [2-(Perfluorohexyl)ethanoic acid]
NOAEL (Mus musculus [6]; short-term, duration: 28 days, M, CD1, Liver: Alanine Aminotransferase (ALT) + Liver: Albumin (A) + Liver: Alkaline Phosphatase (ALP) + Liver: Aspartate Aminotransferase (AST) + …): 5 mg/kg-day
LOAEL (Mus musculus [6]; short-term, duration: 28 days, M, CD1, Liver: Total Cholesterol (CHOL)): 5 mg/kg-day

CC(Cl)CCl (stereo unspecified) [1,2-Dichloropropane]
LOAEL (Rattus norvegicus [4]; subchronic, duration: 13 weeks, inhalation, hyperplasia of the nasal mucosa): 69.3 mg/m3
LOAEL (Rattus norvegicus [5]; short-term, duration: 2 weeks, inhalation, M/F, Fischer 344, respiratory): 462 mg/m3
LOAEL (Rattus norvegicus [5]; subchronic, duration: 13 weeks, oral, gavage, M, Sprague-Dawley, hematological): 100 mg/kg-day
NOEL (Rattus norvegicus [7]; Deaths + Body Weight Changes: decrease + Histopathology: Liver/centrilobular-Congestion Liver-Hepatic fatty change Liver/centrilobular -…): 250 mg/kg-day

c1ccc(NNc2ccccc2)cc1 [1,2-Diphenylhydrazine]
NOAEL (Rattus norvegicus [5]; subchronic, duration: 13 weeks, oral, diet, M, Fischer 344, hepatic): 4.8 mg/kg-day

Oc1cc(Cl)ccc1Cl [2,5-Dichlorophenol]
LC50 (Rattus norvegicus [1]; inhalation, Spartan): > 185000 mg/m3
LD50 (Rattus norvegicus [1]; oral, gavage, Wistar): 2480 mg/kg
LOAEL (Rattus norvegicus [1]; reproduction developmental, duration: 4 weeks, inhalation, Sprague-Dawley): 0.1 mg/L
LD50 (Oryctolagus sp.; occlusive, New Zealand): > 8000 mg/kg
LOAEL (Oryctolagus sp.; reproduction developmental, duration: 21 days, non-occlusive, New Zealand): 1 mg/kg-day
LD50 (Mus musculus [2]; oral, gavage, CD1): ≥ 946 mg/kg and ≤ 1600 mg/kg
